Results published in patent US8575092B2, “Gelling hydrophobic injectable polymer compositions” (Efrat Biopolymers Ltd., priority 2005, dated 2013).

Experiments:
[1] = mouse
Description: Inbred 8-10 week old female C3H mice, weighing about 20 g (Harlan Laboratories, Israel) were kept under specific pathogen free (SPF) conditions and given free access to irradiated sterile food and acidified water throughout the experiment. Blank polymer and pasty formulations containing paclitaxel (5% and 10% w/w) were injected subcutaneously to the backspace via a 23G needle into 12 groups of four C3H mice in each group. […] After 1, 7, 21 and 70 days, mice were sacrificed by cervical dislocation. The polymer implant was taken out, weighed before and after lyophilization and examined for paclitaxel content in the remaining formulation.

[2] = Solubility of bupivacaine free base in the polymer; format: physicochemical
Description: Bupivacaine free base (5, 7, 10% w/w) was incorporated in the liquid polymers by mixing the drug powder in the polymer at 40° C. and filling 1 ml syringe with this formulation. This formulation is a semi-solid at room temperature and liquid at body temperature. […] The free base bupivacaine formed a clear solution in the polymer while the HCl salt was a fine dispersion.
Bupivacaine was incorporated in the polymer without affecting the polymer molecular weight, as confirmed by GPC. Bupivacaine free base (BFB) is easily soluble in P(SA-RA) up to 15% w/w BFB. The hydrochloride salt dispersed well in the polymer without affecting its viscosity at least up to 15% w/w loading. P(SA-RA) 2:8 and 3:7 formulations containing 5% and 7% of bupivacaine constantly released the drug at a first order profile with about 60% of the incorporated drug was released during 7 days in buffer, formulation containing 10% released approximately 70% of its content during this period. For all experiments, the higher MW polymers (Mw=18,000) release the drug at a slower rate, between 10 and 20% less the amount released at each time point, compared to the low MW polymers (Mw=5,000).

S. aureus = assay: Minimum inhibitory concentration of gentamicin; format: cell-based; settings: S. aureus used in this study
Description: The minimum inhibitory concentration of gentamicin for the S. aureus used in this study is 2-4 μg/ml. […] No effect was found in these wells: the O.D. was approximately 0.7. In the wells that contained S. aureus in TSB only, O.D. of approximately 0.6 was found. In view of the results of gentamicin release (FIG. 14) and the profound bacterial inhibition by the diluted solutions (FIG. 15), there is probably a significant antibacterial activity in the release medium at an earlier stage.

Compound: Poly(sebacic acid-co-ricinoleic acid ester anhydride) 2:8 [P(SA:RA) (2:8)]
- in vivo degradation [1]: completely degraded

Compound: CCCCN1CCCCC1C(=O)Nc1c(C)cccc1C (stereo not drawn) [BFB, Bupivacaine]
- solubility in P(SA-RA) [2]: up to 15 % w/w

Compound: gentamicin
- minimum inhibitory concentration (S. aureus): 2 to 4 µg/mL
